# Molecular target: hCereblon(M1-L442)_hDDB1(M1-H1140) (Homo sapiens (Human), UniProt Q96SW2)
# Experiment: Fluorescence direct binding protocol (tryptophan fluorescence titration)
# Conditions: fluorescence titration at 20° C., excited at 280 nm, recorded at 340 nm; protein 5.0 E−8 M; assay buffer 50 mM Hepes 7.4 200 mM NaCl; read-out: Fluorescence h-Cereblon_DDB1 Mean Kd_EQ
# Description: Fluorescence Direct Binding Protocol
# Determination of the affinities of compounds to protein containing one or more tryptophan is measurable by monitoring the fluorescence emission in direct mode. The measurements depending on the protein available amounts are performed either manually in a cuvette on ISS-PC1 photon counting spectrofluorometer or automatically in well plates on a fluorescence plate reader device. Fluorescence titrations are performed at 20° C. in the chosen binding assay buffer by using a defined constant protein concentration against ligand concentration variations. Small aliquots of known ligand concentration solubilized in DMSO were added and the fluorescence, excited at 280 nm, was recorded at 340 nm. The fluorescence intensity was corrected for protein dilution and for the filter effect (Birdsall et al.^69). The corrected fluorescence intensity was plotted against the ligand concentration and fitted using a four-parameter sigmoidal function, from which the equilibrium dissociation constant Kd was computed using the law of mass action assuming a 1:1 protein-ligand complex (Eftink, 1997^70).
# Process • 1) Optimization of measurement parameters to minimize protein consumption and to minimize the dilution effect and the DMSO content • 2) Titration measurements of the protein against ligand by at least 12 titration steps to obtain a good s-curve fit • 3) Repeat the same titration measurements with the ligand alone to enable correction • 4) Check the stability of the protein once by titration against DMSO alone • 5) Determination of the molar extinction coefficients of the ligand at 280 and 340 nm with help of an UV-spectrophotometer • 6) Use Excel template for the correction of the measured raw data • 7) Use GraphPad Prism software for the quadratic binding fit and the KD evaluation.
# Chain of hCereblon(M1-L442)_hDDB1(M1-H1140) (Q96SW2 whole entry): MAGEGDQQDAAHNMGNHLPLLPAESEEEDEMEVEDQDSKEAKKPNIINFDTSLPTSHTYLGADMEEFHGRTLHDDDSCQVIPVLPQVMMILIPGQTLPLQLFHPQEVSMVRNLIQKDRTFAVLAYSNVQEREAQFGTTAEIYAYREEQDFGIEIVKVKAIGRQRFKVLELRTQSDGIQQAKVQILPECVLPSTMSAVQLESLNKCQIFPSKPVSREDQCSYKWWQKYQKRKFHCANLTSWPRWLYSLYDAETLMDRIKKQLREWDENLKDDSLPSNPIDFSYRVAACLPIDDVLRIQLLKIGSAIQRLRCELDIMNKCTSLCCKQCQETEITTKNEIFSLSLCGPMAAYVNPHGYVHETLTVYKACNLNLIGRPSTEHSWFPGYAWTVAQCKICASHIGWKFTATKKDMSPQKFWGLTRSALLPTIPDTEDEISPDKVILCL
# Chain of hCereblon(M1-L442)_hDDB1(M1-H1140) (Q16531 whole entry partner): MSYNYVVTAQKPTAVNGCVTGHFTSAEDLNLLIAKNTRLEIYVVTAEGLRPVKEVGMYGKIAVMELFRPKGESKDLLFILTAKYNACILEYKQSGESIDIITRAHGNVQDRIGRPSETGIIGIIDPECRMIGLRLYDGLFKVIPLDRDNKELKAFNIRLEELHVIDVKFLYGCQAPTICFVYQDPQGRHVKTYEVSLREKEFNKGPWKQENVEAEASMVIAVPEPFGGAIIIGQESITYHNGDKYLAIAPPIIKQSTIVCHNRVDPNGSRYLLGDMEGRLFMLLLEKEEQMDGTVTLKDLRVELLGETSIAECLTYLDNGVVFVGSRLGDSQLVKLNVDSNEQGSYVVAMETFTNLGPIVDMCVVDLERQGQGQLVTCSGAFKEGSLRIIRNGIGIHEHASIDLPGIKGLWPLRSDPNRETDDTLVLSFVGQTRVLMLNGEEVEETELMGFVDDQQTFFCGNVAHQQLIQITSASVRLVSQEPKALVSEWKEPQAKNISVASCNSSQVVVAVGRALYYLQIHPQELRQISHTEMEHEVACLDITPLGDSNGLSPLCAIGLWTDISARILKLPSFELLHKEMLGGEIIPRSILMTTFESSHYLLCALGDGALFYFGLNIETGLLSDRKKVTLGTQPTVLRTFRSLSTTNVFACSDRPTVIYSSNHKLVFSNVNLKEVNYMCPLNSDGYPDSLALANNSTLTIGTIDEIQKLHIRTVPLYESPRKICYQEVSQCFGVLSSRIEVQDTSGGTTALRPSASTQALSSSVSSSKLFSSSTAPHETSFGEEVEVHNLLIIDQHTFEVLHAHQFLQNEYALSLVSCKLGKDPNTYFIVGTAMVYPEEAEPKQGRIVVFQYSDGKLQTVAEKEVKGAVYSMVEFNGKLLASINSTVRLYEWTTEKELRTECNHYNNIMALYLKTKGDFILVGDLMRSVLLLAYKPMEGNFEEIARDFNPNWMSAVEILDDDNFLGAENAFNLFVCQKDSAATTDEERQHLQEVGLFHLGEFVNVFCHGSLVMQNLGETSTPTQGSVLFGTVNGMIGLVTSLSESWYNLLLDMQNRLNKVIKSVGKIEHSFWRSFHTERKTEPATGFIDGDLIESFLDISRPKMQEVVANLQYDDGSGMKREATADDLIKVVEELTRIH
row,Kd,SMILES
1,7 nM,"O=c1[nH]c2ccc(N3CCN(c4ccccn4)CC3)nc2[nH]1 [Example 40, 5-[4-(2-Pyridyl)piperazin-1-yl]-1,3-dihydroimidazo[4,5-b]pyridin-2-one]"
2,18 nM,"O=c1[nH]c2ccc(-c3ccc(-n4cccc4)cc3)cc2[nH]1 [Example 41, 5-(4-Pyrrol-1-yl-phenyl)-1,3-dihydro-benzoimidazol-2-one]"
3,336 nM,"O=c1[nH]c2ccc(-c3cccc4ncccc34)cc2[nH]1 [Example 42, 5-Quinolin-5-yl-1,3-dihydro-benzoimidazol-2-one]"
4,100 nM,"CCOC(=O)c1ccc(NS(=O)(=O)c2ccc3[nH]c(=O)[nH]c3c2)cc1 [Example 43, Ethyl 4-((2-oxo-2,3-dihydro-1H-benzo[d]imidazole)-5-sulfonamido)benzoate]"
5,< 1 nM,"Cn1c(=O)[nH]c2nc(-c3ccccc3)ccc21 [Example 44, 1-Methyl-5-phenyl-3H-imidazo[4,5-b]pyridin-2-one]"
6,22 nM,"CNC(=O)c1ccc2c(c1)nc(Cc1ccccc1OC)n2-c1ccc2[nH]c(=O)[nH]c2c1 [Example 45, 2-(2-Methoxybenzyl)-N-methyl-2′-oxo-2′,3′-dihydro-1′H-[1,5′-bibenzo[d]imidazole]-5-carboxamide]"
7,10 nM,"CNC(=O)c1ccc2c(c1)nc(C(C)(C)C)n2-c1ccc2[nH]c(=O)[nH]c2c1 [Example 46, 2-(tert-Butyl)-N-methyl-2′-oxo-2′,3′-dihydro-1′H-[1,5′-bibenzo[d]imidazole]-5-carboxamide]"
8,20 nM,"COC(=O)c1cccc2c1nc(C(C)C)n2-c1ccc2[nH]c(=O)[nH]c2c1 [Example 47, Methyl 2-isopropyl-2′-oxo-2′,3′-dihydro-1′H-[1,5′-bibenzo[d]imidazole]-4-carboxylate]"
9,11 nM,"COC(=O)c1ccc2nc(C(C)C)n(-c3ccc4[nH]c(=O)[nH]c4c3)c2c1 [Example 48, Methyl 2-isopropyl-2′-oxo-2′,3′-dihydro-1′H-[1,5′-bibenzo[d]imidazole]-6-carboxylate]"
10,23 nM,"Cn1c(=O)n(C)c2cc(Nc3ccccc3[N+](=O)[O-])ccc21 [Example 49, 1,3-Dimethyl-5-((2-nitrophenyl)amino)-1,3-dihydro-2H-benzo[d]imidazol-2-one]"
11,11 nM,"Cn1c(=O)n(C)c2cc(Nc3ccccc3N)ccc21 [Example 50, 5-((2-Aminophenyl)amino)-1,3-dimethyl-1,3-dihydro-2H-benzo[d]imidazol-2-one]"
12,138 nM,"O=C(NC1CCNCC1)c1ccc2[nH]c(=O)[nH]c2c1 [Example 51, 2-Oxo-N-(4-piperidyl)-1,3-dihydrobenzimidazole-5-carboxamide]"
13,6 nM,"Cn1c(=O)[nH]c2ccc(Nc3ccccc3N)cc21 [Example 52, 6-((2-Aminophenyl)amino)-1-methyl-1,3-dihydro-2H-benzo[d]imidazol-2-one]"
14,49 nM,"Cn1c(=O)[nH]c2cc(Nc3ccccc3N)ccc21 [Example 53, 5-((2-Aminophenyl)amino)-1-methyl-1,3-dihydro-2H-benzo[d]imidazol-2-one]"
15,25 nM,"COC(=O)c1cccc2c1CCN2C(=O)c1ccc2[nH]c(=O)[nH]c2c1 [Example 54, Methyl 1-(2-oxo-2,3-dihydro-1H-benzo[d]imidazole-5-carbonyl)indoline-4-carboxylate]"
16,< 1 nM,"O=C(c1cnc2[nH]c(=O)[nH]c2c1)N1CCc2ccccc21 [Example 55, 6-(Indoline-1-carbonyl)-1,3-dihydro-2H-imidazo[4,5-b]pyridin-2-one]"
17,2 nM,"CC(=O)N1CCC(NC(=O)c2cnc3[nH]c(=O)[nH]c3c2)CC1 [Example 56, N-(1-Acetylpiperidin-4-yl)-2-oxo-2,3-dihydro-1H-imidazo[4,5-b]pyridine-6-carboxamide]"
18,7 nM,"CNC(=O)c1ccc2c(c1)nc(-c1cccc(COC)c1)n2-c1ccc2[nH]c(=O)[nH]c2c1 [Example 57, 2-(3-(Methoxymethyl)phenyl)-N-methyl-2′-oxo-2′,3′-dihydro-1′H-[1,5′-bibenzo[d]imidazole]-5-carboxamide]"

row,Kd,SMILES
1,47 nM,"CNC(=O)c1cccc2c1nc(C(C)C)n2-c1ccc2[nH]c(=O)[nH]c2c1 [Example 60, 2-Isopropyl-N-methyl-2′-oxo-2′,3′-dihydro-1′H-[1,5′-bibenzo[d]imidazole]-4-carboxamide]"
2,29 nM,"O=c1[nH]c2ccc(-n3c(CO)nc4ccccc43)cc2[nH]1 [Example 61, 5-[2-(Hydroxymethyl)benzimidazol-1-yl]-1,3-dihydrobenzimidazol-2-one]"
3,< 1 nM,"CC(=O)N1CCN(c2ccc3[nH]c(=O)[nH]c3c2)CC1 [Example 62, 5-(4-Acetylpiperazin-1-yl)-1,3-dihydro-2H-benzo[d]imidazol-2-one]"
4,45 nM,"CNC(=O)c1ccc2c(c1)nc(C1CCOCC1)n2-c1ccc2[nH]c(=O)[nH]c2c1 [Example 64, N-Methyl-2′-oxo-2-(tetrahydro-2H-pyran-4-yl)-2′,3′-dihydro-1′H-[1,5′-bibenzo[d]imidazole]-5-carboxamide]"
5,9 nM,"CNC(=O)c1ccc2c(c1)nc(-c1cn(C)cn1)n2-c1ccc2[nH]c(=O)[nH]c2c1 [Example 65, N-Methyl-2-(1-methyl-1H-imidazol-4-yl)-2′-oxo-2′,3′-dihydro-1′H-[1,5′-bibenzo[d]imidazole]-5-carboxamide]"
6,51 nM,"CNC(=O)c1ccc2c(c1)nc(-c1cc[nH]c1)n2-c1ccc2[nH]c(=O)[nH]c2c1 [Example 66, N-Methyl-2′-oxo-2-(1H-pyrrol-3-yl)-2′,3′-dihydro-1′H-[1,5′-bibenzo[d]imidazole]-5-carboxamide]"
7,5 nM,"O=C(Nc1ccccc1)c1cnc2[nH]c(=O)[nH]c2c1 [Example 67, 2-Oxo-N-phenyl-2,3-dihydro-1H-imidazo[4,5-b]pyridine-6-carboxamide]"
8,9 nM,"O=C(Nc1ccc2[nH]c(=O)[nH]c2c1)c1coc2ccccc12 [Example 68, N-(2-Oxo-2,3-dihydro-1H-benzo[d]imidazol-5-yl)benzofuran-3-carboxamide]"
9,29 nM,"O=C(Nc1ccc2[nH]c(=O)[nH]c2c1)C1CCc2ccccc21 (stereo not drawn) [Example 69, N-(2-Oxo-2,3-dihydro-1H-benzo[d]imidazol-5-yl)-2,3-dihydro-1H-indene-1-carboxamide]"
10,1 nM,"Nc1ccc(CC(=O)Nc2ccc3[nH]c(=O)[nH]c3c2)cc1 [Example 70, 2-(4-Aminophenyl)-N-(2-oxo-2,3-dihydro-1H-benzo[d]imidazol-5-yl)acetamide]"
11,16 nM,"O=C(Nc1ccc2[nH]c(=O)[nH]c2c1)[C@H]1CCCc2ccccc21 [Example 71, (S)—N-(2-Oxo-2,3-dihydro-1H-benzo[d]imidazol-5-yl)-1,2,3,4-tetrahydronaphthalene-1-carboxamide]"
12,14 nM,"O=C(Nc1ccc2[nH]c(=O)[nH]c2c1)[C@@H]1CCCc2ccccc21 [Example 72, (R)—N-(2-Oxo-2,3-dihydro-1H-benzo[d]imidazol-5-yl)-1,2,3,4-tetrahydronaphthalene-1-carboxamide]"
13,11 nM,"O=C(Nc1ccc2[nH]c(=O)[nH]c2c1)c1ccccc1 [Example 73, N-(2-Oxo-2,3-dihydro-1H-benzo[d]imidazol-5-yl)benzamide]"
14,2 nM,"CC(=O)Nc1ccc(C(=O)Nc2ccc3[nH]c(=O)[nH]c3c2)cc1 [Example 74, 4-Acetamido-N-(2-oxo-2,3-dihydro-1H-benzo[d]imidazol-5-yl)benzamide]"
15,7 nM,"CC(=O)Nc1cccc(C(=O)Nc2ccc3[nH]c(=O)[nH]c3c2)c1 [Example 75, 3-Acetamido-N-(2-oxo-2,3-dihydro-1H-benzo[d]imidazol-5-yl)benzamide]"
16,41 nM,"CN(C(=O)c1cnc2[nH]c(=O)[nH]c2c1)c1ccccc1 [Example 76, N-Methyl-2-oxo-N-phenyl-2,3-dihydro-1H-imidazo[4,5-b]pyridine-6-carboxamide]"
17,42 nM,"O=C(Nc1ccccc1)c1ccc2[nH]c(=O)[nH]c2c1 [Example 77, 2-Oxo-N-phenyl-2,3-dihydro-1H-benzo[d]imidazole-5-carboxamide]"
18,23 nM,"CC(=O)Nc1ccc(CC(=O)Nc2ccc3[nH]c(=O)[nH]c3c2)cc1 [Example 78, 2-(4-Acetamidophenyl)-N-(2-oxo-2,3-dihydro-1H-benzo[d]imidazol-5-yl)acetamide]"

row,SMILES,Kd
1,"O=c1[nH]c2ccc(N3CCNCC3)cc2[nH]1 [Example 58, 5-(Piperazin-1-yl)-1,3-dihydro-2H-benzo[d]imidazol-2-one]",12 nM
2,"O=c1[nH]c2ccc(N3C[C@H]4CC[C@@H](C3)N4)cc2[nH]1 [Example 59, 5-[rac-(1S,5R)-3,8-diazabicyclo[3.2.1]octan-3-yl]-1,3-dihydrobenzimidazol-2-one]",6 nM
3,"CC(=O)N1[C@@H]2CC[C@H]1CN(c1ccc3[nH]c(=O)[nH]c3c1)C2 [Example 63, 5-[rac-(1S,5R)-8-Acetyl-3,8-diazabicyclo[3.2.1]octan-3-yl]-1,3-dihydrobenzimidazol-2-one]",79 nM

# Source: patent US11787802B2, “Dihydrobenzimidazolones for medical treatment” (C4 Therapeutics, Inc., priority 2017, dated 2023)
